Values quoted from earlier work as cited in patent publication US20150320746A1, “PHARMACEUTICAL FORMULATION COMPRISING 2,3-DIMETHYL-6-(N,N-DIMETHYLAMINOETHYL)-6H-INDOLO-(2,3-B)QUINOXALINE” (priority 2011, published 2015).

Tested on: HSV-1

Nc1nc2c(ncn2COCCO)c(=O)[nH]1 [Acyclovir, acyclovir]
selectivity ratio for the inhibitory activity against HSV-1 in vitro: about 2000
